Patent US11225505B2, “Antimicrobial polymyxin derivative compounds” (MONASH UNIVERSITY, priority 2015, dated 2022)
≈ marks a conversion by molar mass, not a printed value. Read-outs that look alike come from different tables or passages of the source. Where a SMILES comes first, the peptide text is derived from it. Bridges are numbered along the chain shown (N, C = ends). [ ]: non-standard residue; d: D form. The star is where a group is joined. Pyrrole2carbonyl(4,5-Br2) = O=C(c1cc(Br)c(Br)[nH]1)*; Isoxazole(3-CO,5-Ph) = O=C(c1cc(-c2ccccc2)on1)*; X66 = O=C(c1c[nH]c(-c2ccccc2)n1)*; X64 = O=C(c1noc(-c2ccccc2)n1)*; X34 = O=C(c1cc(Br)c(Br)o1)*; X67 = O=C(c1cc(Br)sc1Br)*; Dab = NCC[C@H](N)C(=O)O; X61 = O=C(c1ccc(Br)s1)*; Abu = CC[C@H](N)C(=O)O; Dap = NC[C@H](N)C(=O)O

Key:
Type in all cases: cell-based
[1] = tested on: Acinetobacter baumannii FADDI-AB030; experiment: microbe, parasite or virus in culture
Method in brief: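 Broth microdilution MIC in cation-adjusted Mueller-Hinton broth per CLSI M100-S24; lipopeptides tested as TFA salts. FADDI-AB030 is a multidrug-resistant clinical isolate. Polymyxin B sulphate served as control.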

[2] = tested on: Pseudomonas aeruginosa ATCC 27853
Method in brief: (§1)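 Standard CLSI (M100-S24) microdilution in cation-adjusted broth gives the MIC for each strain. Test compounds are TFA-salt lipopeptides; the comparator is polymyxin B sulphate.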

[3] = tested on: Acinetobacter baumannii FADDI-AB034
Method in brief: as §1

[4] = tested on: Pseudomonas aeruginosa FADDI-PA01
Method in brief: as §1

[5] = tested on: Enterobacter cloacae FADDI-EC001
Method in brief: (§2)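 MICs were determined by broth microdilution in cation-adjusted Mueller-Hinton broth following the CLSI M100-S24 protocol. Lipopeptides were tested as trifluoroacetic acid salts against polymyxin-susceptible Gram-negative strains, with polymyxin B sulphate as control. FADDI-PA022 and FADDI-AB034 are multidrug-resistant clinical isolates.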

[6] = tested on: Enterobacter cloacae FADDI-EC003
Method in brief: as §1

[7] = tested on: Acinetobacter baumannii ATCC 17978
Method in brief: as §1

[8] = tested on: Klebsiella pneumoniae FADDI-KP022
Method in brief: as §1

[9] = tested on: Pseudomonas aeruginosa FADDI-PA022
Method in brief: as §1

[10] = tested on: Klebsiella pneumoniae Kp BM1
Method in brief: as §2

[11] = tested on: Enterobacter cloacae FADDI-EC006
Method in brief: as §1

[12] = tested on: Pseudomonas aeruginosa FADDI-PA038
Method in brief: as §1

[13] = tested on: Klebsiella pneumoniae FADDI-KP032
Method in brief: as §1

| Compound | Minimum inhibitory concentration ([1]; FADDI-AB030) | Minimum inhibitory concentration ([2]; ATCC 27853) | Minimum inhibitory concentration ([3]; FADDI-AB034) | Minimum inhibitory concentration ([4]; FADDI-) | Minimum inhibitory concentration ([5]; FADDI-EC001) | Minimum inhibitory concentration ([6]; FADDI-EC003) | Minimum inhibitory concentration ([7]; ATCC 17978) | Minimum inhibitory concentration ([8]; FADDI-KP022) | Minimum inhibitory concentration ([9]; FADDI-PA022) | Minimum inhibitory concentration ([10]; Kp BM1) | Minimum inhibitory concentration ([11]; FADDI-EC006) | Minimum inhibitory concentration ([12]; FADDI-PA038) | Minimum inhibitory concentration ([13]; FADDI-KP032) | also measured |
| --- | --- | --- | --- | --- | --- | --- | --- | --- | --- | --- | --- | --- | --- | --- |
| CC[C@@H]1NC(=O)[C@@H](CC(C)C)NC(=O)[C@H](CCN)NC(=O)[C@@H](NC(=O)[C@H](CN)NC(=O)[C@@H](NC(=O)[C@H](CCN)NC(=O)c2cc(Br)sc2Br)[C@@H](C)O)CCNC(=O)[C@H]([C@@H](C)O)NC(=O)[C@H](CCN)NC(=O)[C@H](CCN)NC1=O [Compound 76] (X67-[Dab]T[Dap][Dab][Dab][dL][Abu][Dab][Dab]T; lactam 4-C) | 0.25 µg/mL (≈ 0.199 µM) | 0.25 µg/mL (≈ 0.199 µM) | <0.125 µg/mL | 0.25 µg/mL (≈ 0.199 µM) | 0.25 µg/mL (≈ 0.199 µM) | <0.125 µg/mL | <0.125 µg/mL | <0.125 µg/mL | 0.25 µg/mL (≈ 0.199 µM) | <0.125 µg/mL | <0.125 µg/mL | 0.5 µg/mL (≈ 0.398 µM) | <0.125 µg/mL | – |
| CC[C@@H]1NC(=O)[C@@H](CC(C)C)NC(=O)[C@H](CCN)NC(=O)[C@@H](NC(=O)[C@H](CN)NC(=O)[C@@H](NC(=O)[C@H](CCN)NC(=O)c2cc(Br)c(Br)[nH]2)[C@@H](C)O)CCNC(=O)[C@H]([C@@H](C)O)NC(=O)[C@H](CCN)NC(=O)[C@H](CCN)NC1=O [Compound 77] ({Pyrrole2carbonyl(4,5-Br2)}-[Dab]T[Dap][Dab][Dab][dL][Abu][Dab][Dab]T; lactam 4-C) | 0.25 µg/mL (≈ 0.202 µM) | 0.25 µg/mL (≈ 0.202 µM) | 0.25 µg/mL (≈ 0.202 µM) | 0.25 µg/mL (≈ 0.202 µM) | 0.25 µg/mL (≈ 0.202 µM) | 0.25 µg/mL (≈ 0.202 µM) | 0.5 µg/mL (≈ 0.404 µM) | <0.125 µg/mL | 0.5 µg/mL (≈ 0.404 µM) | <0.125 µg/mL | <0.125 µg/mL | 1 µg/mL (≈ 0.808 µM) | 0.25 µg/mL (≈ 0.202 µM) | – |
| CC[C@@H]1NC(=O)[C@@H](CC(C)C)NC(=O)[C@H](CCN)NC(=O)[C@@H](NC(=O)[C@H](CN)NC(=O)[C@@H](NC(=O)[C@H](CCN)NC(=O)c2ccc(Br)s2)[C@@H](C)O)CCNC(=O)[C@H]([C@@H](C)O)NC(=O)[C@H](CCN)NC(=O)[C@H](CCN)NC1=O [Compound 78] (X61-[Dab]T[Dap][Dab][Dab][dL][Abu][Dab][Dab]T; lactam 4-C) | 0.5 µg/mL (≈ 0.425 µM) | 0.25 µg/mL (≈ 0.213 µM) | 1 µg/mL (≈ 0.85 µM) | <0.125 µg/mL | 0.25 µg/mL (≈ 0.213 µM) | <0.125 µg/mL | 0.25 µg/mL (≈ 0.213 µM) | 0.25 µg/mL (≈ 0.213 µM) | 0.25 µg/mL (≈ 0.213 µM) | <0.125 µg/mL | 0.25 µg/mL (≈ 0.213 µM) | 0.5 µg/mL (≈ 0.425 µM) | 0.5 µg/mL (≈ 0.425 µM) | – |
| CC[C@@H]1NC(=O)[C@@H](CC(C)C)NC(=O)[C@H](CCN)NC(=O)[C@@H](NC(=O)[C@H](CN)NC(=O)[C@@H](NC(=O)[C@H](CCN)NC(=O)c2cc(Br)c(Br)o2)[C@@H](C)O)CCNC(=O)[C@H]([C@@H](C)O)NC(=O)[C@H](CCN)NC(=O)[C@H](CCN)NC1=O [Compound 79] (X34-[Dab]T[Dap][Dab][Dab][dL][Abu][Dab][Dab]T; lactam 4-C) | 0.25 µg/mL (≈ 0.202 µM) | 0.25 µg/mL (≈ 0.202 µM) | 0.5 µg/mL (≈ 0.404 µM) | 1 µg/mL (≈ 0.807 µM) | <0.125 µg/mL | <0.125 µg/mL | 0.5 µg/mL (≈ 0.404 µM) | <0.125 µg/mL | 0.25 µg/mL (≈ 0.202 µM) | 0.25 µg/mL (≈ 0.202 µM) | 0.25 µg/mL (≈ 0.202 µM) | 0.5 µg/mL (≈ 0.404 µM) | <0.125 µg/mL | – |
| CC[C@@H]1NC(=O)[C@@H](CC(C)C)NC(=O)[C@H](CCN)NC(=O)[C@@H](NC(=O)[C@H](CN)NC(=O)[C@@H](NC(=O)[C@H](CCN)NC(=O)c2cc(-c3ccccc3)on2)[C@@H](C)O)CCNC(=O)[C@H]([C@@H](C)O)NC(=O)[C@H](CCN)NC(=O)[C@H](CCN)NC1=O [Compound 80] ({Isoxazole(3-CO,5-Ph)}-[Dab]T[Dap][Dab][Dab][dL][Abu][Dab][Dab]T; lactam 4-C) | 0.5 µg/mL (≈ 0.432 µM) | 0.5 µg/mL (≈ 0.432 µM) | 0.5 µg/mL (≈ 0.432 µM) | 0.5 µg/mL (≈ 0.432 µM) | 0.25 µg/mL (≈ 0.216 µM) | 0.25 µg/mL (≈ 0.216 µM) | 0.5 µg/mL (≈ 0.432 µM) | <0.125 µg/mL | 0.5 µg/mL (≈ 0.432 µM) | 0.25 µg/mL (≈ 0.216 µM) | 0.25 µg/mL (≈ 0.216 µM) | 0.5 µg/mL (≈ 0.432 µM) | 0.25 µg/mL (≈ 0.216 µM) | – |
| CC[C@@H]1NC(=O)[C@@H](CC(C)C)NC(=O)[C@H](CCN)NC(=O)[C@@H](NC(=O)[C@H](CN)NC(=O)[C@@H](NC(=O)[C@H](CCN)NC(=O)c2noc(-c3ccccc3)n2)[C@@H](C)O)CCNC(=O)[C@H]([C@@H](C)O)NC(=O)[C@H](CCN)NC(=O)[C@H](CCN)NC1=O [Compound 81] (X64-[Dab]T[Dap][Dab][Dab][dL][Abu][Dab][Dab]T; lactam 4-C) | 2 µg/mL (≈ 1.73 µM) | 1 µg/mL (≈ 0.863 µM) | 4 µg/mL (≈ 3.45 µM) | 0.5 µg/mL (≈ 0.431 µM) | <0.125 µg/mL | <0.125 µg/mL | 2 µg/mL (≈ 1.73 µM) | <0.125 µg/mL | 0.5 µg/mL (≈ 0.431 µM) | 0.5 µg/mL (≈ 0.431 µM) | 0.25 µg/mL (≈ 0.216 µM) | 1 µg/mL (≈ 0.863 µM) | 0.5 µg/mL (≈ 0.431 µM) | – |
| CC[C@@H]1NC(=O)[C@@H](CC(C)C)NC(=O)[C@H](CCN)NC(=O)[C@@H](NC(=O)[C@H](CN)NC(=O)[C@@H](NC(=O)[C@H](CCN)NC(=O)c2c[nH]c(-c3ccccc3)n2)[C@@H](C)O)CCNC(=O)[C@H]([C@@H](C)O)NC(=O)[C@H](CCN)NC(=O)[C@H](CCN)NC1=O [Compound 82] (X66-[Dab]T[Dap][Dab][Dab][dL][Abu][Dab][Dab]T; lactam 4-C) | – | – | – | – | – | – | – | – | – | – | – | – | – | Minimum inhibitory concentration ([1]; A. baumannii FADDI-AB030, CAMHB broth microdilution): 4 µg/mL (≈ 3.46 µM); Minimum inhibitory concentration ([2]; P. aeruginosa ATCC 27853, CAMHB broth microdilution): 0.5 µg/mL (≈ 0.432 µM); Minimum inhibitory concentration ([3]; A. baumannii FADDI-AB034, CAMHB broth microdilution): 8 µg/mL (≈ 6.91 µM); Minimum inhibitory concentration ([4]; P. aeruginosa FADDI-PA01, CAMHB broth microdilution): 0.5 µg/mL (≈ 0.432 µM); Minimum inhibitory concentration ([5]; E. cloacae FADDI-EC001, CAMHB broth microdilution): 0.25 µg/mL (≈ 0.216 µM); Minimum inhibitory concentration ([6]; E. cloacae FADDI-EC003, CAMHB broth microdilution): 0.25 µg/mL (≈ 0.216 µM); Minimum inhibitory concentration ([7]; A. baumannii ATCC 17978, CAMHB broth microdilution): 2 µg/mL (≈ 1.73 µM); Minimum inhibitory concentration ([8]; K. pneumoniae FADDI-KP022, CAMHB broth microdilution): <0.125 µg/mL; Minimum inhibitory concentration ([9]; P. aeruginosa FADDI-PA022, CAMHB broth microdilution): 0.5 µg/mL (≈ 0.432 µM); Minimum inhibitory concentration ([10]; K. pneumoniae Kp BM1, CAMHB broth microdilution): 1 µg/mL (≈ 0.864 µM); Minimum inhibitory concentration ([11]; E. cloacae FADDI-EC006, CAMHB broth microdilution): 0.5 µg/mL (≈ 0.432 µM); Minimum inhibitory concentration ([12]; P. aeruginosa FADDI-PA038, CAMHB broth microdilution): 2 µg/mL (≈ 1.73 µM); Minimum inhibitory concentration ([13]; K. pneumoniae FADDI-KP032, CAMHB broth microdilution): 0.5 µg/mL (≈ 0.432 µM) |
